Results taken from paper PMC4609890, “Discovery of novel small molecule modulators of Clavibacter michiganensis subsp. michiganensis” (Frontiers in Microbiology, 2015).
In brackets after ≈: the same amount, converted by molar mass.

Key:
[1] = tested on: Clavibacter michiganensis subsp. michiganensis (Cmm); assay: Minimum inhibitory concentration (MIC) for Cmm growth; assay type: cell-based; conditions: read-out: MICs
Description: Seventy-seven selected compounds were re-ordered from ChemBridge in a 96-well format as a powder. The compounds were dissolved in 100 μl DMSO and stored at -80°C until used. […] In addition, ability of Cmm to develop resistance to selected compounds was tested. […]

[2] = tested on: Clavibacter michiganensis subsp. michiganensis (Cmm); assay: Resistance evaluation by single step at a lethal dose; assay type: cell-based; conditions: 5 days on NBY agar with 2X MIC, 1 × 10^9 CFU
Description: (§1) Single step and sequential passage resistance assays were performed as described previously with few modifications ([Ling et al., 2015]). Eleven of the 12 top hit compounds were tested in this experiment and one could not be resynthesized. […] The MBCs for each of these compounds were determined as described previously ([Ling et al., 2015]).
Cmm grown in NBY medium at 28°C for 48 h was centrifuged at 4,700 × g for 15 min at room temperature. Supernatant was discarded and bacteria were resuspended in sterile water to a concentration of 2 × 10^10 CFU/ml). Compounds (2× MIC) were mixed with […] of molten NBY agar medium and transferred to duplicate wells of a 24-well culture plate. Agar in the plate was allowed to solidify in the dark. Fifty microlitre of Cmm culture (1 × 10^9 CFU) was added to test wells, dried in the dark at room temperature, and incubated at 28°C for 5 days in the dark. Bacteria spread on NBY agar with 50 μg/ml kanamycin or NBY agar itself was used as positive and negative controls, respectively. After 5 days of incubation, any colonies that developed were assessed for resistance to the test compounds by determining MIC and the MBC as noted above.

[3] = tested on: Clavibacter michiganensis subsp. michiganensis (Cmm); assay: Minimum bacteriocidal concentration (MBC) for Cmm; assay type: cell-based; conditions: read-out: MBCs
Description: (§2) Seventy-seven selected compounds were re-ordered from ChemBridge in a 96-well format as a powder. The compounds were dissolved in 100 μl DMSO and stored at -80°C until used. […] In addition, ability of Cmm to develop resistance to selected compounds was tested.
as §1

Cmm BL-Cmm17 = assay: Bioluminescent Cmm tomato seedling infection assay; assay type: in vivo; conditions: seeds infested with BL-Cmm17, compound applied to seed, 8-days-old seedlings plated
Description: A bioluminescent Cmm strain, BL-Cmm17, was used to monitor the effect of selected small molecules on Cmm infection of tomato seedlings in vivo ([Xu et al., 2010]). Briefly, tomato seeds (cv. OH9242) were infested by soaking in BL-Cmm17 suspension (10^8 CFU/ml) in a 100-ml sterile beaker. The beaker was placed in a Nucerite Desiccator (Nalge Sybron Corporation, Rochester, NY, USA), and a vacuum was applied for 5 min using an Air Cadet pump (Barnant, Barrington, IL, USA) with a maximum of 18 lb/in^2 pressure. Seeds treated similarly with sterilized water were used as controls. After inoculation, seeds were air-dried and one seed was placed in a 1.2 ml library tube containing 400 μl of 1% water agar; tubes were placed in wells of a 96-well plate. The selected compound (1 μl of 2 μmol in 50 μl water) was applied to each seed and the plate was incubated at 25°C under 8 h/16 h light/dark conditions. There were three replicate seeds/plate per treatment. Bioluminescence images were taken using an in vivo imaging system (IVIS Model 100; PerkinElmer, Waltham, MA, USA) 3 and 8 days later. Eight-days-old seedlings were ground in potassium phosphate buffer and extracts were serially diluted and plated on NBY to assess the presence of Cmm.

[4] = tested on: Clavibacter michiganensis subsp. michiganensis (Cmm); assay: Resistance evaluation by sequential passage at sub-lethal doses; assay type: cell-based; conditions: 15 passages in liquid NBY at 0.75X MIC
Description: as §1
Clavibacter michiganensis subsp. michiganensis cultures grown in NBY broth medium at 28°C for 24 h were suspended in fresh NBY broth and normalized to an OD600 of 0.01 (5 × 10^6 CFU/ml). One-hundred microliters fresh culture was transferred to duplicate wells of a 96-well microtiter plate each containing 0.75× MIC of a test compound (concentration allowing >50% growth inhibition). Cmm cultured in 20 μg/ml chloramphenicol, 50 μg/ml kanamycin, or 2% DMSO, or non-amended NBY broth were used as controls. The bacteria were incubated at 28°C, 150 rpm, for 24 h in the dark. Following incubation, plates were centrifuged at 2,100 × g for 5 min at room temperature. The supernatant was discarded, bacteria were resuspended in 100 μl fresh NBY and transferred into a new 96-well plate containing 0.75× MIC of the same small molecule. This procedure was repeated 14 times. Following 15 passages, bacterial suspensions were assessed for resistance to the test compound by assessing MIC and MBC as noted above.

Bacillus subtilis GB03 = assay: Secondary screen kinetic growth inhibition of B. subtilis; assay type: cell-based; conditions: 200 μM
Description: as §2
(§3) Screening for growth inhibition of Cmm strains, plant beneficial bacteria and human gut bacteria was set up similarly to the initial screen using 1 μl of 2 μmol suspensions of each compound. Plates were incubated in a Sunrise^TM Tecan microplate reader for kinetic measurement of growth every 15 min for 24 h. Growth curves were analyzed in DB interface software and the effect of each compound on growth was evaluated based on the ratio of area under growth curve (compound/control) as “no significant effect (ratio > 0.5),” “inhibition (ratio ≤ 0.5),” “static (ratio = 0, bacterial growth revived after streak on a fresh NBY plate)” and “cidal (ratio = 0, bacterial growth not revived)” ([Wallace et al., 2011]).

[5] = tested on: Gram-negative bacteria tested; assay: Secondary screen kinetic growth inhibition of Gram-negative bacteria; assay type: cell-based; conditions: 200 μM
Description: as §2, §3

Cmm strains = assay: Secondary screen kinetic growth inhibition of Cmm strains; assay type: cell-based, Clavibacter michiganensis subsp. michiganensis; conditions: kinetic growth 24 h
Description: as §2, §3

[6] = tested on: plant beneficial bacteria and human gut bacteria; assay: Secondary screen on plant beneficial bacteria and human gut bacteria (antibacterial spectrum); assay type: cell-based; conditions: compared with other 11 compounds; data not shown
Description: as §2, §3

SMILES | MIC [1] | Resistant colonies after incubation at lethal (2X MIC) concentration [2] | MBC [3] | Cmm growth reduction in tomato seedlings (Cmm BL-Cmm17) | Resistant colonies after growth at sub-lethal (0.75X MIC) concentration [4] | Effect on B. subtilis growth (Bacillus subtilis GB03) | Effect on growth of Gram-negative bacteria tested [5] | Effect on Cmm growth (Cmm strains) | Antibacterial spectrum [6]
COc1cccc(-c2ccc(NC(=O)C3CCCN(Cc4cccc(O)c4)C3)cc2)c1 (stereo not drawn) [Compound 12] | 12.5 µM (≈ 5.21 µg/mL) | None | 25 µM (≈ 10.4 µg/mL) | over 0.5 log | None | – | – | – | –
CCCOc1ccc(C(=O)C2=C(O)C(=O)N(CCCN(C)C)C2c2ccc(Cl)cc2)cc1C (stereo not drawn) [Compound 9] | 50 µM (≈ 23.5 µg/mL) | None | 100 µM (≈ 47.1 µg/mL) | – | None | – | – | – | –
CN(Cc1nc2ccccc2[nH]1)Cc1c[nH]nc1-c1ccc(-c2ccccc2)cc1 [Compound 2] | 25 µM (≈ 9.84 µg/mL) | None | 50 µM (≈ 19.7 µg/mL) | – | None | – | – | – | –
Cc1ccnc(Nc2nc(-c3ccc(O)c(O)c3)cs2)c1 [Compound 7] | 50 µM (≈ 15 µg/mL) | None | 50 µM (≈ 15 µg/mL) | – | None | cidal (cidal (ratio = 0, bacterial growth not revived)) | not | cidal (cidal (ratio = 0, bacterial growth not revived)) | –
CC1CCC(C(C)C)C(OC(=O)Cn2c[n+](CC(=O)OC3CC(C)CCC3C(C)C)c3ccccc32)C1 (stereo not drawn) [Compound 5] | 5 µM | None | 5 µM | – | None | – | – | – | broader antibacterial spectrum
CCOC(=O)N1CCN(CC(O)COc2ccc(C3CCCCC3)cc2)CC1 (stereo not drawn) [Compound 8] | 50 µM (≈ 19.5 µg/mL) | None | 50 µM (≈ 19.5 µg/mL) | – | None | – | – | – | –
COc1cccc(-c2ccccc2NC(=O)C2CCN(Cc3ccc(OC)cc3F)CC2)c1 [Compound 1] | 25 µM (≈ 11.2 µg/mL) | None | 25 µM (≈ 11.2 µg/mL) | – | None | – | – | – | –
O=C(Nc1cccc(-c2cscn2)c1)C1CCN(C/C=C/c2ccc(F)cc2)CC1 [Compound 6] | 50 µM (≈ 21.1 µg/mL) | None | 50 µM (≈ 21.1 µg/mL) | – | None | – | – | – | –
CC(C)Cc1ccc(CN2CCCC(NC(=O)CCn3c(CO)nc4ccccc43)C2)cc1 (stereo not drawn) [Compound 4] | 100 µM (≈ 44.9 µg/mL) | None | 100 µM (≈ 44.9 µg/mL) | – | None | – | – | – | –
Cc1cc(O)ccc1Nc1nc(-c2cccs2)cs1 [Compound 3] | 50 µM (≈ 14.4 µg/mL) | None | 50 µM (≈ 14.4 µg/mL) | – | None | cidal (cidal (ratio = 0, bacterial growth not revived)) | not | cidal (cidal (ratio = 0, bacterial growth not revived)) | –
